A word on the Ki: it is the dissociation constant of the complex between target and ligand, obtained from inhibition or displacement. Read a high Ki as a looser hold on the target.

The target in this experiment is Cannabinoid receptor 2 (Homo sapiens, UniProt P34972).
Sequence of Cannabinoid receptor 2 (P34972 whole entry): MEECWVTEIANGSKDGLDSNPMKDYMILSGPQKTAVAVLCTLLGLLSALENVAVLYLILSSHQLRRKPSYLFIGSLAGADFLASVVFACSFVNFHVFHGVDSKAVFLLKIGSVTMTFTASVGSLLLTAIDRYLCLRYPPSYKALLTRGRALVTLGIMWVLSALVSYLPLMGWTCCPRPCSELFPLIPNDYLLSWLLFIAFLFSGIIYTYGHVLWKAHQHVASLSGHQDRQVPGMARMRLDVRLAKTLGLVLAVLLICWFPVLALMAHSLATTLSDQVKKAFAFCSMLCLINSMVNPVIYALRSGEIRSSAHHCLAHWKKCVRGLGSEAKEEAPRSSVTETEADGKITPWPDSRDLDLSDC

With `O=C1C(CCC(O)c2ccc(F)cc2)C(c2ccc(O)cc2)N1c1ccc(F)cc1` (stereo unspecified) [CAS_44450418], the Ki came to 1820 nM.

The record behind these values is BindingDB's records for doi:10.1021/jm701519h (Cns Biological Research, 2008).
